Data taken from patent US12084422B2, “Phenyl-n-quinoline derivatives for treating a RNA virus infection” (ABIVAX, priority 2018, dated 2024).

Each compound was assayed on DENV-2 strain 16681 (assay: Screening for DENV-2 inhibition using Viral ToxGlo assay in A549 cells). Conditions: Dengue virus, DENV2, A549, 120 h, read-out: % DENV-2 Inhibition Mean (n = 3).
Assay type: cell-based, Dengue 2 virus
Procedure: Protocol for Screening Antiviral Compounds for DENV-2 Inhibition and Cytotoxicity Using Viral ToxGlo Assay
A549 cells were maintained in Dulbecco's Modified Eagle Medium (DMEM) supplemented with 10% fetal bovine serum, 100 U/ml penicillin and 100 μg/ml streptomycin. For the purposes of the screening assay they were grown to 90% confluency, trypsinized and recovered. The trypsin was neutralised with cell culture media and cells were centrifuged at 150×g for 5 minutes before discarding the supernatant and resuspending cell pellet in assay media (DMEM supplemented with 2% fetal bovine serum and 100 U/ml penicillin and 100 μg/ml streptomycin). The cells were seeded into 96-well white clear-bottomed cell culture plates at a density of 1.0×10^4 cells/well in 50 μl. For the media/background control column assay media only was added. Cell plates were placed in a humid chamber and incubated overnight at 37° C./5% CO2. After overnight incubation cells were checked for confluency and healthy appearance.
Test compounds were prepared at a final concentration of 10 μM, in a maximum DMSO concentration of 1% (final assay concentration maximal 0.1% DMSO) and added to the cell plates in volumes of 10 μl. For cell control and virus control wells the test article solvent only was added. As a positive inhibition control, 7-Deaza-2′-C-methyladenosine was added at 100 μM in 3 wells. Virus (DENV-2 strain 16681) or assay media for cytotoxicity test wells and media/cell control wells was added immediately after test articles at an MOI of 0.5, 40 for 96 well plates respectively. Virus suspension was prepared by thawing DENV-2 frozen stocks and diluting to the required concentration of plaque forming units in assay media.
Cell plates were further incubated inside a humid chamber for 5 days p.i at 37° C./5% CO2. After the incubation period cells were observed under the microscope to check for characteristic cytopathic effect in virus control wells and healthy cells in the cell control wells. After plates were adjusted to room temperature 20 μl Viral ToxGlo (Promega) was added to each well of the 96-well cell plates. Plates were incubated at room temperature for 5 minutes before measuring the luminescence on a spectrophotometer (Envision, PerkinElmer).
DENV-2 inhibition was calculated as percentage of cytopathic effect inhibition relative to the virus control and cytotoxicity as percentage of cell survival relative to cell control wells.

Structure (SMILES)	inhibition at 10 µM [%]
Cc1cc(OC(C)C)ccc1Nc1ccc2cccc(Cl)c2n1 [Compound 10, 8-chloro-N-(4-isopropoxy-2-methylphenyl)quinolin-2-amine]	79
CCc1cc(OC(C)C)ccc1Nc1ccc2cccc(Cl)c2n1 [Compound 13, 8-chloro-N-(2-ethyl-4-isopropoxyphenyl)quinolin-2-amine]	117
Cc1cc(OC(C)C)c(C)cc1Nc1ccc2cccc(Cl)c2n1 [Compound 43, 8-chloro-N-(4-isopropoxy-2,5-dimethylphenyl)quinolin-2-amine]	68
